Assay results from the NIST ThermoML archive (doi:10.1016/j.jct.2018.02.022).

Test: xn = mol fraction of the nth substance listed
Details: 92.3 kPa, Liquid; for viscosity: Concentric cylinders viscometry; for speed of sound: Frequency=3 MHz, Single path-length method; for mass density: Vibrating tube method

OCC(O)CO [glycerol] + O
Details | mass density, 293.15 K [kg/m3] | mass density, 298.15 K [kg/m3] | speed of sound, 293.15 K [m/s] | speed of sound, 298.15 K [m/s] | viscosity, 293.15 K [mPa·s] | viscosity, 298.15 K [mPa·s]
x1 = 0.011 | 1010.85 | 1009.54 | 1505.6 | 1518.5 | – | –
x1 = 0.021 | 1021.71 | 1020.28 | 1526.4 | 1538 | – | –
x1 = 0.0302 | 1031.17 | 1029.64 | 1544.8 | 1555.4 | – | –
x1 = 0.0398 | 1040.58 | 1038.94 | 1563.4 | 1572.8 | – | –
x1 = 0.0546 | 1054.09 | 1052.3 | 1590.1 | 1598 | – | –
x1 = 0.0651 | 1062.84 | 1060.94 | 1608.2 | 1615 | – | –
x1 = 0.0721 | 1068.61 | 1066.65 | 1619.8 | 1625.8 | – | –
x1 = 0.0793 | 1073.97 | 1071.95 | 1630.9 | 1636.2 | – | –
x1 = 0.0898 | 1081.8 | 1079.69 | 1646.9 | 1651.3 | – | –
x1 = 0.0998 | 1088.82 | 1086.64 | 1661.3 | 1664.9 | 3.277 | 2.631
x1 = 0.1198 | 1101.67 | 1099.36 | 1687.5 | 1689.5 | – | –
x1 = 0.1549 | 1121.66 | 1119.16 | 1727.7 | 1727.3 | 5.662 | 4.416
x1 = 0.2024 | 1143.7 | 1141.01 | 1770.2 | 1767.4 | – | –
x1 = 0.2534 | 1162.81 | 1159.99 | 1804.7 | 1800 | 13.67 | 10.4
x1 = 0.2959 | 1176 | 1173.1 | 1826.9 | 1821 | 19.73 | 14.91
x1 = 0.3504 | 1190.05 | 1187.09 | 1846.7 | 1841.6 | 30.2 | 22.91
x1 = 0.4006 | 1200.88 | 1197.86 | 1863.9 | 1856.1 | 45.08 | 33.73
x1 = 0.4477 | 1209.47 | 1206.42 | 1874.9 | 1866.5 | 63.42 | 46.86
x1 = 0.4983 | 1217.48 | 1214.4 | 1884.4 | 1875.4 | 90.21 | 65.72
x1 = 0.5471 | 1224.33 | 1221.23 | 1891.7 | 1882.4 | 124.25 | 89.21
x1 = 0.6046 | 1231.03 | 1227.93 | 1898.3 | 1888.6 | 182.07 | 126.31
x1 = 0.6469 | 1235.49 | 1232.4 | 1902.4 | 1892.3 | 234.23 | 163.54
x1 = 0.7006 | 1240.52 | 1237.44 | 1906.8 | 1896.3 | 322.03 | 220.14
x1 = 0.7465 | 1244.44 | 1241.37 | 1910.2 | 1899.4 | 419.77 | 283.91
x1 = 0.7942 | 1248.13 | 1245.06 | 1913.5 | 1902.3 | 535.66 | 358.24
x1 = 0.8497 | 1251.95 | 1248.81 | 1916.8 | 1905.2 | 705.87 | 463.79
x1 = 0.8993 | 1254.99 | 1251.84 | 1919.1 | 1907 | 897.16 | 584.38
x1 = 0.9196 | 1256.26 | 1253.1 | 1920.6 | 1908.2 | – | –
x1 = 0.9322 | 1256.97 | 1253.82 | 1921.3 | 1908.7 | – | –
x1 = 0.9462 | 1257.78 | 1254.68 | 1922.1 | 1909.8 | 1125.1 | 725.78
x1 = 0.9562 | 1258.3 | 1255.2 | 1922.6 | 1909.8 | – | –
x1 = 0.9855 | 1259.96 | 1256.87 | 1924.3 | 1911 | – | –
x1 = 1 | 1260.73 | 1257.65 | 1925.5 | 1911.9 | 1408.4 | 900.44
